Source: patent US11051515B2, “3-acyl-benzamides and their use as herbicides” (Bayer Aktiengesellschaft, priority 2017, dated 2021)

What was measured:
[1] = tested on: ALOMY; assay: Pre-emergence action against ALOMY; format: in vivo, Alopecurus myosuroides; conditions: dosage 320 g/ha, pre-emergence, scored visually after 3 weeks vs untreated controls, 100% = plants have died, 0% = like control plants
How it was run: (§1)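 Seeds sown in sandy loam in wood-fiber pots and covered with soil. Greenhouse growth; visual damage scored after 3 weeks versus untreated controls (100% = dead, 0% = like control).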

[2] = tested on: AVEFA; assay: Pre-emergence action against AVEFA; format: in vivo, Avena fatua; conditions: dosage 320 g/ha, scored visually after 3 weeks vs untreated controls
How it was run: as §1

[3] = tested on: CYPES; assay: Pre-emergence action against CYPES; format: in vivo, Cyperus esculentus; conditions: pre-emergence, dosage 320 g/ha, scored visually after 3 weeks vs untreated controls
How it was run: as §1

[4] = tested on: ECHCG; assay: Pre-emergence action against ECHCG; format: in vivo, Echinochloa crus-galli; conditions: pre-emergence, dosage 320 g/ha, scored visually after 3 weeks vs untreated controls
How it was run: as §1

[5] = tested on: LOLMU; assay: Pre-emergence action against LOLMU; format: in vivo, Lolium multiflorum; conditions: dosage 320 g/ha, scored visually after 3 weeks vs untreated controls
How it was run: as §1

[6] = tested on: SETVI; assay: Pre-emergence action against SETVI; format: in vivo, Setaria viridis; conditions: pre-emergence, dosage 320 g/ha, scored visually after 3 weeks vs untreated controls
How it was run: as §1

[7] = tested on: ABUTH; assay: Pre-emergence action against ABUTH; format: in vivo, Abutilon theophrasti; conditions: pre-emergence, dosage 320 g/ha, scored visually after 3 weeks vs untreated controls
How it was run: as §1

[8] = tested on: AMARE; assay: Pre-emergence action against AMARE; format: in vivo, Amaranthus retroflexus; conditions: pre-emergence, dosage 320 g/ha, scored visually after 3 weeks vs untreated controls
How it was run: as §1

[9] = tested on: MATIN; assay: Pre-emergence action against MATIN; format: in vivo, Matricaria inodora; conditions: Dosage 320 g/ha, pre-emergence
How it was run: as §1

[10] = tested on: POLCO; assay: Pre-emergence action against POLCO; format: in vivo, Polygonum convolvulus; conditions: Dosage 320 g/ha, pre-emergence
How it was run: as §1

[11] = tested on: STEME; assay: Pre-emergence action against STEME; format: in vivo, Stellaria media; conditions: Dosage 320 g/ha, pre-emergence
How it was run: as §1

[12] = tested on: VIOTR; assay: Pre-emergence action against VIOTR; format: in vivo, Viola tricolor; conditions: Dosage 320 g/ha, pre-emergence
How it was run: as §1

[13] = tested on: VERPE; assay: Pre-emergence action against VERPE; format: in vivo, Veronica persica; conditions: Dosage 320 g/ha, pre-emergence
How it was run: as §1

[14] = tested on: ALOMY; assay: Post-emergence action against ALOMY; format: in vivo, Alopecurus myosuroides; conditions: Dosage 80 g/ha, post-emergence
How it was run: (§2)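 Weeds grown in sandy loam in greenhouse, treated at one-leaf stage (2–3 weeks after sowing) with WP or EC formulations sprayed as aqueous suspension/emulsion at 600 to […] water with 0.2% wetting agent. Visual rating after about 3 weeks versus untreated controls, as % herbicidal action (100% = plants dead, 0% = like control).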

[15] = tested on: AVEFA; assay: Post-emergence action against AVEFA; format: in vivo, Avena fatua; conditions: post-emergence, dosage 80 g/ha, visual assessment about 3 weeks after treatment vs untreated controls
How it was run: as §2

[16] = tested on: CYPES; assay: Post-emergence action against CYPES; format: in vivo, Cyperus esculentus; conditions: post-emergence, dosage 80 g/ha, visual assessment about 3 weeks after treatment vs untreated controls
How it was run: as §2

[17] = tested on: ECHCG; assay: Post-emergence action against ECHCG; format: in vivo, Echinochloa crus-galli; conditions: post-emergence, dosage 80 g/ha, visual assessment about 3 weeks after treatment vs untreated controls
How it was run: as §2

[18] = tested on: LOLMU; assay: Post-emergence action against LOLMU; format: in vivo, Lolium multiflorum; conditions: dosage 80 g/ha, visual assessment about 3 weeks after treatment vs untreated controls
How it was run: as §2

[19] = tested on: SETVI; assay: Post-emergence action against SETVI; format: in vivo, Setaria viridis; conditions: post-emergence, dosage 80 g/ha, visual assessment about 3 weeks after treatment vs untreated controls
How it was run: as §2

[20] = tested on: ABUTH; assay: Post-emergence action against ABUTH; format: in vivo, Abutilon theophrasti; conditions: post-emergence, dosage 80 g/ha, visual assessment about 3 weeks after treatment vs untreated controls
How it was run: as §2

[21] = tested on: MATIN; assay: Post-emergence action against MATIN; format: in vivo, Matricaria inodora; conditions: post-emergence, dosage 80 g/ha, visual assessment about 3 weeks after treatment vs untreated controls
How it was run: as §2

[22] = tested on: PHBPU; assay: Post-emergence action against PHBPU; format: in vivo, Pharbitis purpurea; conditions: post-emergence, dosage 80 g/ha
How it was run: as §2

[23] = tested on: POLCO; assay: Post-emergence action against POLCO; format: in vivo, Polygonum convolvulus; conditions: post-emergence, dosage 80 g/ha
How it was run: as §2

[24] = tested on: STEME; assay: Post-emergence action against STEME; format: in vivo, Stellaria media; conditions: post-emergence, dosage 80 g/ha
How it was run: as §2

[25] = tested on: VIOTR; assay: Post-emergence action against VIOTR; format: in vivo, Viola tricolor; conditions: post-emergence, dosage 80 g/ha
How it was run: as §2

[26] = tested on: VERPE; assay: Post-emergence action against VERPE; format: in vivo, Veronica persica; conditions: dosage 80 g/ha
How it was run: as §2

[27] = tested on: PHBPU; assay: Pre-emergence action against PHBPU; format: in vivo, Pharbitis purpurea; conditions: Dosage 320 g/ha, pre-emergence
How it was run: as §1

[28] = tested on: AMARE; assay: Post-emergence action against AMARE; format: in vivo, Amaranthus retroflexus; conditions: post-emergence, dosage 80 g/ha, visual assessment about 3 weeks after treatment vs untreated controls
How it was run: as §2

CC(=O)c1c(Cl)ccc(C(=O)Nc2nnnn2C)c1Cl [1-114]
100%: pest or weed control at 320 g/ha ([2]; Avena fatua, 504 h, read-out: Pre-emergence action against AVEFA (herbicidal activity)) | pest or weed control at 320 g/ha ([3]; Cyperus esculentus, 504 h, read-out: Pre-emergence action against CYPES (herbicidal activity)) | pest or weed control at 320 g/ha ([4]; Echinochloa crus-galli, 504 h, read-out: Pre-emergence action against ECHCG (herbicidal activity)) | pest or weed control at 320 g/ha ([5]; Lolium multiflorum, 504 h, read-out: Pre-emergence action against LOLMU (herbicidal activity)) | pest or weed control at 320 g/ha ([6]; Setaria viridis, 504 h, read-out: SETVI (Table B8, pre-emergence herbicidal activity)) | pest or weed control at 320 g/ha ([7]; Abutilon theophrasti, 504 h, read-out: Pre-emergence action against ABUTH (herbicidal activity)) | pest or weed control at 320 g/ha ([8]; Amaranthus retroflexus, 504 h, read-out: Pre-emergence action against AMARE (herbicidal activity)) | pest or weed control at 320 g/ha ([9]; Tripleurospermum inodorum, 504 h) | pest or weed control at 320 g/ha ([12]; Viola tricolor, 504 h) | pest or weed control at 320 g/ha ([13]; Veronica persica, 504 h) | pest or weed control at 80 g/ha ([18]; Lolium multiflorum, 504 h, read-out: Post-emergence action against LOLMU (herbicidal action in percent)) | pest or weed control at 80 g/ha ([24]; Stellaria media, 504 h) | pest or weed control at 80 g/ha ([26]; Veronica persica, 504 h)
90%: pest or weed control at 320 g/ha ([1]; Alopecurus myosuroides, 504 h, read-out: Pre-emergence action against ALOMY (herbicidal activity in percent)) | pest or weed control at 320 g/ha ([10]; Fallopia convolvulus, 504 h) | pest or weed control at 320 g/ha ([11]; Stellaria media, 504 h) | pest or weed control at 80 g/ha ([15]; Avena fatua, 504 h, read-out: Post-emergence action against AVEFA (herbicidal action in percent)) | pest or weed control at 80 g/ha ([17]; Echinochloa crus-galli, 504 h, read-out: Post-emergence action against ECHCG (herbicidal action in percent)) | pest or weed control at 80 g/ha ([22]; Ipomoea purpurea, 504 h) | pest or weed control at 80 g/ha ([23]; Fallopia convolvulus, 504 h) | pest or weed control at 80 g/ha ([25]; Viola tricolor, 504 h)
80%: pest or weed control at 80 g/ha ([14]; Alopecurus myosuroides, 504 h) | pest or weed control at 80 g/ha ([16]; Cyperus esculentus, 504 h, read-out: Post-emergence action against CYPES (herbicidal action in percent)) | pest or weed control at 80 g/ha ([19]; Setaria viridis, 504 h, read-out: Post-emergence action against SETVI (herbicidal action in percent)) | pest or weed control at 80 g/ha ([20]; Abutilon theophrasti, 504 h, read-out: Post-emergence action against ABUTH (herbicidal action in percent)) | pest or weed control at 80 g/ha ([21]; Tripleurospermum inodorum, 504 h, read-out: Post-emergence action against MATIN (herbicidal action in percent))

CCC(=O)c1c(C(F)(F)F)ccc(C(=O)Nc2nnnn2CC)c1C [2-15]
100%: Pre-emergence action against ALOMY (herbicidal activity in percent) [1] | Pre-emergence action against AVEFA (herbicidal activity) [2] | Pre-emergence action against ECHCG (herbicidal activity) [4] | Pre-emergence action against LOLMU (herbicidal activity) [5] | SETVI (Table B8, pre-emergence herbicidal activity) [6] | Pre-emergence action against ABUTH (herbicidal activity) [7] | Pre-emergence action against AMARE (herbicidal activity) [8] | Pre-emergence action against MATIN [9] | Pre-emergence action against STEME [11] | Pre-emergence action against VIOTR [12] | Pre-emergence action against VERPE [13] | Post-emergence action against ALOMY [14] | Post-emergence action against SETVI (herbicidal action in percent) [19] | Post-emergence action against ABUTH (herbicidal action in percent) [20]
80: Post-emergence action against PHBPU [22]
90%: Pre-emergence action against CYPES (herbicidal activity) [3] | Post-emergence action against CYPES (herbicidal action in percent) [16] | Post-emergence action against ECHCG (herbicidal action in percent) [17] | Post-emergence action against LOLMU (herbicidal action in percent) [18] | Post-emergence action against AMARE (herbicidal action in percent) [28] | Post-emergence action against MATIN (herbicidal action in percent) [21]
100: Post-emergence action against POLCO [23] | Post-emergence action against STEME [24] | Post-emergence action against VIOTR [25]
80%: Pre-emergence action against PHBPU [27] | Post-emergence action against AVEFA (herbicidal action in percent) [15]
90: Post-emergence action against VERPE [26]

CCn1nnnc1NC(=O)c1ccc(Cl)c(C(=O)C2CC2)c1Cl [2-116]
100%: Pre-emergence action against ALOMY (herbicidal activity in percent) [1] | Pre-emergence action against ECHCG (herbicidal activity) [4] | Pre-emergence action against LOLMU (herbicidal activity) [5] | SETVI (Table B8, pre-emergence herbicidal activity) [6] | Pre-emergence action against ABUTH (herbicidal activity) [7] | Pre-emergence action against AMARE (herbicidal activity) [8] | Pre-emergence action against MATIN [9] | Pre-emergence action against VIOTR [12] | Pre-emergence action against VERPE [13]
80%: Post-emergence action against ALOMY [14] | Post-emergence action against CYPES (herbicidal action in percent) [16] | Post-emergence action against ABUTH (herbicidal action in percent) [20]
100: Post-emergence action against PHBPU [22] | Post-emergence action against VIOTR [25]
90: Post-emergence action against POLCO [23] | Post-emergence action against STEME [24] | Post-emergence action against VERPE [26]
90%: Pre-emergence action against AVEFA (herbicidal activity) [2] | Pre-emergence action against CYPES (herbicidal activity) [3] | Pre-emergence action against PHBPU [27] | Pre-emergence action against POLCO [10] | Pre-emergence action against STEME [11] | Post-emergence action against AVEFA (herbicidal action in percent) [15] | Post-emergence action against ECHCG (herbicidal action in percent) [17] | Post-emergence action against LOLMU (herbicidal action in percent) [18] | Post-emergence action against SETVI (herbicidal action in percent) [19] | Post-emergence action against AMARE (herbicidal action in percent) [28] | Post-emergence action against MATIN (herbicidal action in percent) [21]
